Assay results published in US6458026B1, “Integrin-targeting vectors having transfection activity” (ICH Productions Limited, priority 1997, dated 2002).
Where two headings read alike, the source gives them in different places.

Tests used:
[1] = tested on: integrins; conditions: cited from earlier work
[2] = tested on: human lung fibroblasts (HFL-1 cells); assay: Antisense transfection: thrombin-induced proliferation of HFL-1 cells; type: cell-based; conditions: thrombin-treated cells
Method: Thrombin stimulates proliferation of human lung fibroblasts. Thrombin-treated human lung fibroblasts (HFL-1 cells) proliferated 53% in response to thrombin. 24 hours before treatment with thrombin, HFL-1 cells were treated with an LID complex comprising [K]16-peptide 6, lipofectin and a 20-mer antisense oligonucleotide directed against the thrombin receptor PAR-1 in the optimal ratio and mixing order prepared as described in the Materials and Methods section and the Examples above. The antisense oligonucleotide-containing complex was in contact with the cells for 4 hours. 24 hours after the start of the treatment with the complex, treatment with thrombin was carried out.

With GACDCRGDCFCA [Peptide 5] as the substance, how does the integrin specificity [1] read?
Its integrin specificity is “Peptide 5 (αv)”.

And the integrin specificity ([1]; listed as peptide 5)?
Its integrin specificity is “has high affinity for integrin αv but is not αv-specific”.

Which integrin specificity [1] does the source give for GACRGDMFGCA [Peptide 1] here?
Its integrin specificity is “has affinity for α5 and αv integrins but is non-specific”.

For GACRRETAWACG [Peptide 6], which integrin specificity [1] is on record?
The integrin specificity was “α5β1-specific”.

Which “proliferation in response to thrombin” value [2] does the source give for thrombin here?
Its value is 53%.
